Earlier results in paper PMC9660540 (Clinical Cancer Research, 2022).
Read-outs that look alike come from different tables or passages of the source.

Assays:
advanced NSCLC = settings: in combination with carboplatin, pemetrexed, and pembrolizumab; of 6 evaluable patients; ref [47]; cited from earlier work
[1] = cited from earlier work
[2] = phase I trials; ref [45]; cited from earlier work
mCRPC = settings: cited from earlier work; for OS benefit: phase III clinical trials, ref [35–37]
[3] = test system: renal cell carcinoma (RCC); settings: pretreated patients with RCC; ref [43]; cited from earlier work

Which “Patients with a PR” value (advanced NSCLC) does the source give for `Cc1c(C#N)cccc1-c1cc(-c2cn(Cc3cccc(C(C)(C)O)n3)nn2)nc(N)n1` [AB928] here?
Its value is 3 patients.

With `C[S@+]([O-])CCOc1cc(N2CCN(CCn3c(=O)sc4c3nc(N)n3nc(-c5ccco5)nc43)CC2)c(F)cc1F` [EOS100850] as the compound, how does the “Grade ≥3 treatment-related AEs” value ([1]; up to doses of 160 mg twice daily, ref [42, 45]) read?
The value was “no grade ≥3 treatment-related AEs”.

And the “Best response of SD” value [2]?
Its value is 6 patients.

For `Nc1nc(-n2cccn2)nc(-n2cccn2)c1Br` [NIR178], which “Grade ≥3 treatment-related AEs” value ([1]; monotherapy, at the highest doses (480 and 640 mg), ref [42, 44]) is on record?
Its value is “nausea, increased AST, ALT, and lipase levels, and pneumonitis”.

Which “Median PFS” value (mCRPC; later-line mCRPC, ref [48]) does the source give for `CO[C@H]1C(=O)[C@]2(C)[C@@H](OC)C[C@H]3OC[C@@]3(OC(C)=O)[C@H]2[C@H](OC(=O)c2ccccc2)[C@]2(O)C[C@H](OC(=O)[C@H](O)[C@@H](NC(=O)OC(C)(C)C)c3ccccc3)C(C)=C1C2(C)C` [cabazitaxel] here?
The value was 3.9 months.

Which “Patients with tumor regression” value (mCRPC; mCRPC, with or without atezolizumab, of 33 patients, ref [46]) does the source give for `Cc1ccc(-c2nc(N)nc3c2nnn3Cc2cccc(CO[C@H]3CCOC3)n2)o1` [ciforadenant] here?
The value was 5 patients.

And the “Patients with a PR” value [3]?
Its value is 3%.

And the “Most common treatment-related AEs” value ([1]; ref [42, 43])?
Its value is “fatigue, nausea, and pruritus”.

Which OS benefit (mCRPC; mCRPC) does the source give for atezolizumab: anti–PD-L1 antibody here?
The OS benefit was “failed to demonstrate an OS benefit”.

With “durvalumab: human immunoglobulin G1 monoclonal antibody that inhibits binding of PD-L1 to PD-1 and CD80” as the compound, how does the “Grade 3−4 treatment-related events” value ([1]; durvalumab monotherapy, PACIFIC study, ref [33]) read?
The value was 11.8%.

For ipilimumab: anti–CTLA-4 antibody, which OS benefit (mCRPC; mCRPC) is on record?
Its OS benefit is “failed to demonstrate an OS benefit”.
